Where a name gives a salt, the structure may show the parent alone. Read-outs that look alike come from different tables or passages of the source.
Legend:
MCT cells [1] = test system: MCT cells
Experimental: (§4) Reagents, cells, and protocols. Where not otherwise indicated, reagents were purchased from Sigma (Madrid, Spain). A mouse cortical tubule cell line (MCT) was used for the study. Cells were maintained in RPMI 1640 medium (Gibco, Madrid, Spain) supplemented with 10% fetal bovine serum (FBS, Gibco, Madrid, Spain), 500 U/mL penicillin, 50 mg/mL streptomycin (Gibco, Madrid, Spain) and 1 mM L-glutamine. […] During the treatments, cells were photographed under live cell, light microscope (Axiovert 200M, Zeiss; and Nikon Eclipse TS100, Barcelona, Spain) for visual inspection. At the end, cell extracts were obtained in extraction buffer (25 mM PIPES, pH7; 25 mM KCI; 5 mM EGTA; 0,5% NP-40, and a mixture of protease inhibitors consisting of 1 mM phenylsulfonyl fluoride, 1 µg/mL leupeptine, and 1 µg/mL aprotinin). Protein content was determined with a commercial kit (Bio-Rad, Madrid, Spain) based in the Lowry method.

MCT cells [2] = test system: MCT cells; remark: listed apart in the source
Experimental: (§5) A mouse cortical tubule cell line (MCT) was used for the study. Cells were maintained in RPMI 1640 medium (Gibco, Madrid, Spain) supplemented with 10% fetal bovine serum (FBS, Gibco, Madrid, Spain), 500 U/mL penicillin, 50 mg/mL streptomycin (Gibco, Madrid, Spain) and 1 mM L-glutamine. […] During the treatments, cells were photographed under live cell, light microscope (Axiovert 200M, Zeiss; and Nikon Eclipse TS100, Barcelona, Spain) for visual inspection. At the end, cell extracts were obtained in extraction buffer (25 mM PIPES, pH7; 25 mM KCI; 5 mM EGTA; 0,5% NP-40, and a mixture of protease inhibitors consisting of 1 mM phenylsulfonyl fluoride, 1 µg/mL leupeptine, and 1 µg/mL aprotinin). Protein content was determined with a commercial kit (Bio-Rad, Madrid, Spain) based in the Lowry method.
(§6) Caspase activity. Twenty micrograms of protein from cell extracts were incubated with 100 µL reaction buffer (50 mM HEPES, pH7.4; 100 mM NaCl; 1 mM EDTA; 0.1% 3-[3-(cholamidopropyl)-dimethylammonio]-1-propane sulfonate; 10% sucrose; and 5 mM DTT) containing 100 µM of the fluorogenic caspase substrate rhodamine 110, bis-(N-CBZ-L-aspartyl-L-glutamyl-L-valyl-L-aspartic acidamide (Z-DEVD)2Rh110; Anaspec, Fremont, CA, USA)) at 37 °C for 30 min in a Fluoroskan Ascent FL fluorometer (Thermo, Rockford, IL, USA), and fluorescence intensity was measured every 3 min at 538 nm, upon excitation at 485 nm. Caspase activity was calculated from the slope of the linear relationship between fluorescence intensity and time.

MCT cells [3] = test system: MCT cells; remark: listed apart in the source
Experimental: Where not otherwise indicated, reagents were purchased from Sigma (Madrid, Spain). A mouse cortical tubule cell line (MCT) was used for the study. Cells were maintained in RPMI 1640 medium (Gibco, Madrid, Spain) supplemented with 10% fetal bovine serum (FBS, Gibco, Madrid, Spain), 500 U/mL penicillin, 50 mg/mL streptomycin (Gibco, Madrid, Spain) and 1 mM L-glutamine. […] During the treatments, cells were photographed under live cell, light microscope (Axiovert 200M, Zeiss; and Nikon Eclipse TS100, Barcelona, Spain) for visual inspection.
MTT assay. Viable cell number was comparatively estimated by incubating cell cultures with 0.5 mg/mL 3-[4,5-dimethylthiazol-2-yl]-2,5-diphrnyl tetrazolium bromide (MTT) for 4h. Then, 10% SDS in 0.01 M HCL was added in 1:1 (vol/vol) and left overnight at 37 °C. Finally, absorbance was measured at 570 nm as an index of viable cell number.

Male Wistar rats [4] = experiment: Rat models of AKI: renal histopathology; assay type: in vivo; conditions: hematoxylin and eosin, cisplatin 5 mg/kg i.p., gentamicin 150 mg/kg per day i.p. for 6 days
Excerpt: (§1) Rat models of AKI. Male Wistar rats (220-240 g) were housed under controlled experimental conditions and allowed free access to regular chow and water. […] Rats were allocated in metabolic cages to obtain 24-hour, individual urine samples. Blood was drawn with a needle from the tail vein, and plasma was obtained by centrifugation and, at the end of the treatments, kidneys were perfused with heparinized saline and immediately dissected. Half of the kidney was fixed in paraformaldehyde for histological studies, and the rest was frozen at -80 °C for biochemical analysis.
Renal histopathology. Paraformaldehyde-fixed tissue samples were immersed in paraffin, cut into […] slices and stained with hematoxylin and eosin.

MCT cells [5] = experiment: Western blot / 2D proteomic analysis of culture medium and cell extracts; conditions: 18 h, cisplatin 0-30 µM, cycloheximide 50-800 µM
Experimental: as §5, §6

MCT cells [6] = experiment: Internucleosomal DNA fragmentation; assay type: cell-based, mouse; conditions: cisplatin, 18 h, concentration-dependent
Experimental: (§2) Reagents, cells, and protocols.
DNA fragmentation. DNA fragmentation was determined with the commercial kit Cell Death Detection Plus (Roche Diagnostics, Barcelona, Spain) in 10 µg of protein from each cell extract.

MCT cells [7] = experiment: Caspase (DEVDase) activity in cell extracts; assay type: cell-based, mouse; conditions: cisplatin, 18 h, concentration-dependent
Excerpt: as §2
(§3) Caspase activity. […] Western blot.

Male Wistar rats [8] = experiment: Rat models of AKI: urinary markers by Western blot; assay type: in vivo
Excerpt: as §3, §1

MCT cells [9] = experiment: Apoptotic cells / death phenotype by light microscopy; conditions: medium without serum, 18 h, cisplatin 0-30 µM, cycloheximide 50-800 µM
Experimental: as §4

MCT cells [10] = experiment: RT-qPCR analysis of gene expression; assay type: cell-based, mouse; conditions: 0-30 µM cisplatin, 18 h, normalized with RPS13
Experimental: as §2
RT-qPCR analysis. Total RNA was isolated using Nucleospin RNAII (Macherey-Nagel, Düren, Germany). First-strand cDNA was generated from 1 µg of total RNA using poly-dT as primer with the M-MLV reverse transcriptase (Promega, Barcelona, Spain). Real-time PCR (qPCR) was performed in triplicate. In a total reaction volume of 20 µL containing 1 µL of cDNA, 0.4 µM of each primer and 1x iQSybrGreen Supermix (Bio-Rad), with initial denaturation at 95 °C for 5 min followed by 40 cycles of 30 sec at 95 °C, and 30 sec at 65 °C, and finally, one cycle of 30 sec at 72 °C. Threshold cycle (Ct) values were obtained. The sequences of TCP1-eta used were: sense 5'-[…]-3' (SEQ ID NO: 1); anti-sense 5'-[…]-3' (SEQ ID NO: 2); and RPS13: sense 5'-[…]-3' (SEQ ID NO: 3); anti-sense 5'-[…]-3' (SEQ ID NO: 4). Standard curves were run for each transcript to assure exponential amplification and to rule out non-specific amplification. Changes in the expression level were calculated following normalization with RPS13. The reactions were run on an iQ5 Real-Time PCR detection system (Bio-Rad, Madrid, Spain).

Male Wistar rats [11] = experiment: Rat models of AKI: renal function (plasma creatinine); assay type: in vivo; conditions: cisplatin single i.p. 5 mg/kg, gentamicin i.p. 150 mg/kg per day for 6 days
Experimental: Renal function. Renal function was monitored by means of plasma creatinine and urea and urinary protein concentration, which were determined with commercial colorimetric kits (Quantichrom Creatinine and Quantichrom Urea Assay Kits, BioAssay Systems, Hayward, CA, USA), according to the manufacturer's instructions.

[12] = rats, cisplatin single i.p. 5 mg/kg, gentamicin i.p. 150 mg/kg per day for 6 days, Western blot

Molecule: C[C@@H]1C[C@@H]([C@H](O)CC2CC(=O)NC(=O)C2)C(=O)[C@@H](C)C1 [Cycloheximide, cycloheximide]
- number of apoptotic cells / apoptotic phenotype (MCT cells [1]): induces apoptosis
- TCP1-eta in the culture medium (MCT cells [2]): increases TCP1-eta secretion to the culture medium
- executioner caspase 3 (active caspase 3, p19 fragment) (MCT cells [2]): executioner caspase 3 activation
- cell viability (MCT cells [3]): reduces cell viability

Molecule: N.N.[Cl][Pt][Cl] [cisplatin]
- pattern of renal damage (region affected) (Male Wistar rats [4]): both the cortex and the outer medulla
- TCP1-eta in the culture medium (MCT cells [5]): increased with increasing concentrations of cisplatin
- internucleosomal DNA fragmentation (MCT cells [6]): increased
- caspase (DEVDase) activity (MCT cells [7]): increased
- urinary NGAL (Male Wistar rats [8]; [12]): significantly increases
- urinary TCP1-eta (Male Wistar rats [8]; [12]): significantly increases
- number of apoptotic cells / apoptotic phenotype (MCT cells [9]): increased the number of apoptotic cells
- TCP1-eta gene expression (MCT cells [10]): progressive TCP1-eta gene induction with increasing concentrations of the drug

Molecule: O=C(O)/C=C\C(=O)O [sodium maleate]
- urinary TCP1-eta (Male Wistar rats [8]; normal rats, single i.v. injection of sodium maleate 400 mg/kg): TCP1-eta is excreted with the urine

Molecule: gentamicin
- pattern of renal damage (region affected) (Male Wistar rats [4]): mostly the cortex and, to a lesser extent, the medulla
- urinary NGAL (Male Wistar rats [8]; [12]): significantly increases
- urinary TCP1-eta (Male Wistar rats [8]; [12]): significantly increases
- Plasma creatinine (Male Wistar rats [11]): significantly increases
